The target of assay [1] is T1, GLP1R (Homo sapiens, UniProt P43220). Kind of assay: GLP1R cAMP assay (HTRF), HEK293/GLP-1R/CRE/Luc, Clone 4. In general terms: Changes in cAMP serve as a functional read-out for many G protein-coupled receptors.
Target sequence in this assay (P43220 24-463): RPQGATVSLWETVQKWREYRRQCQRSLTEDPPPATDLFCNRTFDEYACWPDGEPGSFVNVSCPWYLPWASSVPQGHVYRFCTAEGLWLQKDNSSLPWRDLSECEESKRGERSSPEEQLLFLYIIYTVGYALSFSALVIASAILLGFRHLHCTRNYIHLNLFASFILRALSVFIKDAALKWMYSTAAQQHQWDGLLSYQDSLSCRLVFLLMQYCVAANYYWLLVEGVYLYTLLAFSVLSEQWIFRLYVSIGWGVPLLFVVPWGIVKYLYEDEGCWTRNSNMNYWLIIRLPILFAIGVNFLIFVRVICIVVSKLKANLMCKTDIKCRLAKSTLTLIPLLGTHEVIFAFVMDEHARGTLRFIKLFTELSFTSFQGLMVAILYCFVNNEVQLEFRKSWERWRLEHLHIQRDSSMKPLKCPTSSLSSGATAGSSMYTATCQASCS
Protocol: The human GLP-1R coding sequence (NCBI Reference Sequence NM_002062) was subcloned into pcDNA3.1+/Hygro vector (Invitrogen) and transfected into HEK293/CRE/Luc parental cell line. A cell line stably expressing the receptor was isolated.
Varying concentrations of each compound to be tested (in DMSO) were diluted in DMSO to obtain 200× compound working solution first and then 50 nl compounds were added to a white 384-well assay plate (Greiner 784075) with ECHO. The final DMSO concentration was 0.5%.
Cells were removed from cryopreservation, re-suspended in 5 mL of Dulbecco's Phosphate Buffered Saline (DPBS-Sigma Cat #D8537) and centrifuged at 900×g for 5 min at 22° C. The cell pellet was then re-suspended in 1 mL of assay buffer [DPBS with 500 μM IBMX (Sigma #15879) and 0.1% BSA (Sigma #A1933). IBMX and BSA were freshly added on the day of assay]. A 10 μL sample of the cell suspension was counted on an Invitrogen Countess II to determine cell viability and cell count per mL. The remaining cell suspension was then adjusted with assay buffer to deliver 1000 viable cells per well using a Matrix Combi Multidrop reagent dispenser. 10 μL cell suspensions were added to each well
of the assay plate which already contains compound. The plate was sealed and incubated at 37° C. with 5% CO2 for 30 minutes.
Following the 30 minute incubation, 5 μL of labeled d2 cAMP and 5 μL of anti-cAMP antibody (both diluted 1:20 in cell lysis buffer; as described in the manufacturer's assay protocol) were added to each well of the assay plate. The plates were then incubated at room temperature and after 60 minutes, changes in the HTRF signal were read with an Envision multi-label plate reader using excitation of 330 nm and emissions of 615 and 665 nm. Raw data were converted to nM cAMP by interpolation from a cAMP standard curve (as described in the manufacturer's assay protocol) and the percent effect was determined relative to a saturating concentration of the full agonist GLP-17-37 (10 nM) included on each plate. EC50 determinations were made from agonist dose-response curves analyzed with a curve fitting program using a 4-parameter logistic dose response equation.
For assay [2], the target named is T1, GLP1R. Kind of assay: cAMP assay in CHO cells stably expressing hGLP-1R. The arrangement: expressed in transfected cells; host or cells: CHO cells stably transfected. The assay is classed as cell-based. The settings on record: CHO cells stably expressing hGLP-1R (Table 2), read-out: CHO cAMP stable EC50. The method, then:
GLP-1R-mediated agonist activity was determined with a cell-based functional assay utilizing an HTRF (Homogeneous Time-Resolved Fluorescence) cAMP detection kit (cAMP Dynamic 2 Assay Kit; CisBio cat #62AM4PEC) that measures cAMP levels in the cell. The method is a competitive immunoassay between native cAMP produced by the cells and exogenous cAMP labeled with the dye d2. The tracer binding is visualized by a mAb anti-cAMP labeled with Cryptate. The specific signal (i.e., energy transfer) is inversely proportional to the concentration of cAMP in either standard or experimental sample.
Following the 30 minute incubation, 5 μL of labeled d2 cAMP and 5 μL of anti-cAMP antibody (both diluted 1:20 in cell lysis buffer; as described in the manufacturer's assay protocol) were added to each well of the assay plate. […] Raw data were converted to nM cAMP by interpolation from a cAMP standard curve (as described in the manufacturer's assay protocol) and the percent effect was determined relative to a saturating concentration of the full agonist GLP-17-37 (10 nM) included on each plate. EC50 determinations were made from agonist dose-response curves analyzed with a curve fitting program using a 4-parameter logistic dose response equation. […]
Target sequence in this assay (P43220 24-463): as above

The target in assay [3] is T1, GLP1R. The arrangement: Emax: dose or concentration left out as unconfirmed. The settings on record: CHO-K1, […], read-out: β-arrestin recruitment Bmax (%).
Target sequence in this assay (P43220 24-463): as above
Target sequence in this assay (P32121 whole entry partner): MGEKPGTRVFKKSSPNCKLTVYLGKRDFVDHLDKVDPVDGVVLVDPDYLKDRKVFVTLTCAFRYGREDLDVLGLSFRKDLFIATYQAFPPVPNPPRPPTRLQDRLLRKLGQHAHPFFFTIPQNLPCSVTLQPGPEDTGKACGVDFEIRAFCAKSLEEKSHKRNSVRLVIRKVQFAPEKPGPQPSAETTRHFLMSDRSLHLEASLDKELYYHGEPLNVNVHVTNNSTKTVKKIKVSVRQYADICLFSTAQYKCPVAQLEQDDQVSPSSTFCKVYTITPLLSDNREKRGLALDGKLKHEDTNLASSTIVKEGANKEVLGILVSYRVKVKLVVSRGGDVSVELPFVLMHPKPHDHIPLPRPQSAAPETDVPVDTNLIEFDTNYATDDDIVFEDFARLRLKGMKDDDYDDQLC
Protocol: Frozen cells were quickly thawed and 10 mL of cell plating medium (provided by the kit) was added to thawed cells. Cells were stored in a 37° C. incubator under 5% CO2 and kept for approximately 48 hours until ready to run the assay.
Reference and test compounds were dissolved in 100% DMSO. […] 5 μL of this solution was added to 20 μL cell medium in assay plate for a final top concentration of 10 μM. Plates were then incubated at 37° C. under 5% CO2 for 90 min.
Following 90 min incubation, detection reagents were made up by combining 1 part Galacton Star Substrate with 5 parts Emerald II™ Solution, and 19 parts of PathHunter Cell Assay Buffer, respectively. 12.5 μl detection reagent was added to each well. The plates were then incubated at room temperature in dark for 60 min. Plates were then read on Envision for 0.1 sec/well.
Cells were plated at a density of 1000 or 2000 cells/20 μL/well. Frozen cells were quickly thawed and added to 10 mL of cell plating medium. Cells were stored in a 37 degree incubator under 5% CO2 and left for approximately 48 hours until ready to run the assay
Prepare 10× concentration of an agonist in serum free DMEM, and add all solutions into the compound plate. 2.5 μL of this solution was added to 20 μL cell medium in assay plate for a final top concentration of 10 μM. Plates were incubated at 37° C. under 5% CO2 for 30 min. An additional 2.5 μL of Buffer was added to the entire plate for agonist mode and incubated at 37° C. for another 90 min.
Following 90 min incubation, detection reagents were made up as described. 12.5 μL was added to all wells. The plates were then incubated at room temperature in dark for 60 min. Plates were then read on Envision for 0.1 sec/well.
Data analysis: GraphPad Prism 6 was used for establishment of progression curve. EC50s or IC50s were determined by 4-parameter logistic dose response equation.
The target in assay [4] is T1, GLP1R. Kind of assay: β-Arrestin-mediated GLP1R internalization assay (PathHunter U2OS cells). The assay is classed as cell-based. On the set-up: host or cells: PathHunter engineered U2OS cells. The settings on record: averaged Bmax where applicable, Percentage of Control GLP-1 (7-37), top 10 μM, 180 min. In short, it runs like this:
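PathHunter U2OS cells co-express untagged GLP1R, EA-tagged β-arrestin and an endosome-localized PK tag, so internalization gives β-galactosidase complementation. Agonist (top final concentration 10 μM) applied for 180 min at 37 °C, then chemiluminescence read after 60 min detection. EC50 from 4-parameter logistic fits.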
Target sequence in this assay (P43220 24-463): as the sequence (P43220 24-463) above
Target sequence in this assay (P32121 whole entry partner): as the sequence (P32121 whole entry partner) above

A word on the EC50: it is the concentration that produces a half-maximal response.

SMILES strings stand for the structures. A value given as a limit tells only on which side of the number the result lay.

Consider `N#Cc1ccc(COc2nc(-c3ccc(Cc4nc5ccc(C(=O)O)nc5n4C[C@@H]4CCO4)c(F)c3)ncc2F)c(F)c1` [Compound 263, (S)-2-(4-(4-(4-cyano-2-fluorobenzyloxy)-5-fluoropyrimidin-2-yl)-2-fluorobenzyl)-3-(oxetan-2-ylmethyl)-3H-imidazo[4,5-b]pyridine-5-carboxylic acid], for which the concentration giving a half-maximal response (EC50) in assay [1] and in assay [2] was less than 15 nM each time. Moreover, the Emax in assay [3] came out at 18.9%.
In the case of `N#Cc1ccc(COc2nc(-c3ccc(Cc4nc5ccc(C(=O)O)cc5n4C[C@@H]4CCO4)c(F)c3)ncc2F)c(F)c1` [Compound 266, (S)-2-(4-(4-((4-cyano-2-fluorobenzyl)oxy)-5-fluoropyrimidin-2-yl)-2-fluorobenzyl)-1-(oxetan-2-ylmethyl)-1H-benzo[d]imidazole-6-carboxylic acid], the “β-arrestin internalization Bmax (POC)” value in assay [4] came out at 19.9 ± 0.122 POC. For the same molecule, the EC50 in assay [1] and in assay [2] was less than 15 nM throughout. For the same molecule, the Emax in assay [3] amounted to 26.7 ± 4.76%.
As to `O=C(O)c1ccc2nc(Cc3cc(F)c(-c4cccc(OCc5ncc(Cl)cc5F)n4)cc3F)n(C[C@@H]3CCO3)c2n1` [Compound 276, (S)-2-(4-(6-((5-chloro-3-fluoropyridin-2-yl)methoxy)pyridin-2-yl)-2,5-difluorobenzyl)-3-(oxetan-2-ylmethyl)-3H-imidazo[4,5-b]pyridine-5-carboxylic acid], the “β-arrestin internalization Bmax (POC)” value in assay [4] came to 26.7 POC. The EC50 in assay [1] and in assay [2] was less than 15 nM each time. In addition, the Emax in assay [3] was 35.6 ± 3.9%.
Turning to `N#Cc1cnc(COc2cccc(-c3cc(F)c(Cc4nc5ccc(C(=O)O)nc5n4C[C@@H]4CCO4)cc3F)n2)c(F)c1` [Compound 278, (S)-2-(4-(6-((5-cyano-3-fluoropyridin-2-yl)methoxy)pyridin-2-yl)-2,5-difluorobenzyl)-3-(oxetan-2-ylmethyl)-3H-imidazo[4,5-b]pyridine-5-carboxylic acid], the “β-arrestin internalization Bmax (POC)” value in assay [4] worked out at 36.5 POC. Further, the EC50 in assay [1] and in assay [2] was less than 15 nM throughout. Moreover, the Emax in assay [3] was 36.2 ± 5.56%.
`N#Cc1ccc(COc2cccc(-c3cc(F)c(Cc4nc5ccc(C(=O)O)nc5n4C[C@@H]4CCO4)cc3F)n2)c(F)c1` [Compound 292, (S)-2-(4-(6-((4-cyano-2-fluorobenzyl)oxy)pyridin-2-yl)-2,5-difluorobenzyl)-3-(oxetan-2-ylmethyl)-3H-imidazo[4,5-b]pyridine-5-carboxylic acid]: the “β-arrestin internalization Bmax (POC)” value in assay [4] stood at 29.6 POC. Moreover, the EC50 in assay [1] and in assay [2] was less than 15 nM throughout. For the same molecule, in assay [3], the Emax is 42.2 ± 2.68%.
As for `O=C(O)c1ccc2nc(Cc3cc(F)c(-c4cccc(OCc5ccc(F)cn5)n4)cc3F)n(C[C@@H]3CCO3)c2n1` [Compound 298, (S)-2-(2,5-difluoro-4-(6-((5-fluoropyridin-2-yl)methoxy)pyridin-2-yl)benzyl)-3-(oxetan-2-ylmethy)-3H-imidazo[4,5-b]pyridine-5-carboxylic acid], the EC50 in assay [1] is less than 15 nM; in assay [2] it was 15 to 150 nM.
As for `O=C(O)c1ccc2nc(Cc3cc(F)c(-c4ncc(F)c(OCc5ccc(Cl)cn5)n4)cc3F)n(C[C@@H]3CCO3)c2n1` [Compound 300, (S)-2-(4-(4-((5-chloropyridin-2-yl)methoxy)-5-fluoropyrimidin-2-yl)-2,5-difluorobenzyl)-3-(oxetan-2-ylmethyl)-3H-imidazo[4,5-b]pyridine-5-carboxylic acid], the EC50 is less than 15 nM in assay [1] and 15 to 150 nM in assay [2].
Taken in the same sequence, the figures for `N#Cc1cnc(COc2nc(-c3ccc(Cc4nc5ccc(C(=O)O)nc5n4C[C@@H]4CCO4)c(F)c3)ncc2F)c(F)c1` [Compound 301, (S)-2-(4-(4-((5-cyano-3-fluoropyridin-2-yl)methoxy)-5-fluoropyrimidin-2-yl)-2-fluorobenzyl)-3-(oxetan-2-ylmethyl)-3H-imidazo[4,5-b]pyridine-5-carboxylic acid] were less than 15 nM and 15 to 150 nM.
On to `O=C(O)c1ccc2nc(Cc3cc(F)c(-c4cccc(OCc5ccc(-n6ccnc6)cc5)n4)cc3F)n(C[C@@H]3CCO3)c2n1` [Compound 303, (S)-2-(4-(6-(4-(1H-imidazol-1-yl)benzyloxy)pyridin-2-yl)-2,5-difluorobenzyl)-3-(oxetan-2-ylmethyl)-3H-imidazo[4,5-b]pyridine-5-carboxylic acid], for which the “β-arrestin internalization Bmax (POC)” value in assay [4] was determined as 28.4 POC. Moreover, the EC50 in assay [1] and in assay [2] was less than 15 nM throughout. Moreover, the Emax in assay [3] turned out to be 39.2 ± 4.75%.
Consider `N#Cc1ccc(COc2cccc(-c3ccc(Cc4nc5ccc(C(=O)O)c(F)c5n4C[C@@H]4CCO4)c(F)c3)n2)c(F)c1` [Compound 310, (S)-2-(4-(6-((4-cyano-2-fluorobenzyl)oxy)pyridin-2-yl)-2-fluorobenzyl)-7-fluoro-1-(oxetan-2-ylmethyl)-1H-benzo[d]imidazole-6-carboxylic acid], for which the EC50 in assay [1] and in assay [2] was less than 15 nM each time. The Emax in assay [3] amounted to 37.8%.
As for `O=C(O)c1ccc2nc(Cc3ccc(-c4nccc(OCc5ccc(Cl)cc5F)n4)cc3F)n(C[C@@H]3CCO3)c2c1F` [Compound 311, (S)-2-(4-(4-((4-chloro-2-fluorobenzyl)oxy)pyrimidin-2-yl)-2-fluorobenzyl)-7-fluoro-1-(oxetan-2-ylmethyl)-1H-benzo[d]imidazole-6-carboxylic acid], the “β-arrestin internalization Bmax (POC)” value in assay [4] worked out at 26.7 ± 4.53 POC. The EC50 in assay [1] and in assay [2] was less than 15 nM in each case. The Emax in assay [3] is 38.8 ± 7.09%.
As for `N#Cc1ccc(COc2nc(-c3ccc(Cc4nc5ccc(C(=O)O)c(F)c5n4C[C@@H]4CCO4)c(F)c3)ncc2F)c(F)c1` [Compound 312, (S)-2-(4-(4-((4-cyano-2-fluorobenzyl)oxy)-5-fluoropyrimidin-2-yl)-2-fluorobenzyl)-7-fluoro-1-(oxetan-2-ylmethyl)-1H-benzo[d]imidazole-6-carboxylic acid], the “β-arrestin internalization Bmax (POC)” value in assay [4] is 45.2 POC. Further, the EC50 in assay [1] and in assay [2] was less than 15 nM throughout. For the same molecule, the Emax in assay [3] came to 33.4 ± 2.13%.
In the case of `N#Cc1ccc(COc2cccc(-c3ccn(Cc4nc5ccc(C(=O)O)c(F)c5n4C[C@@H]4CCO4)c(=O)c3)n2)c(F)c1` [Compound 322, (S)-2-((6-((4-cyano-2-fluorobenzyl)oxy)-2′-oxo-[2,4′-bipyridin]-1′(2′H)-yl)methyl)-7-fluoro-1-(oxetan-2-ylmethyl)-1H-benzo[d]imidazole-6-carboxylic acid], the EC50 in assay [1] is less than 15 nM; in assay [2], 15 to 150 nM.
Taken in the same sequence, the figures for `O=C(O)c1ccc2nn(Cc3ccc(-c4cccc(OCc5ccc(Cl)cc5F)n4)cc3F)c(CC3CCO3)c2c1` (centres unmarked) [Compound 326, 2-(4-(6-(4-chloro-2-fluorobenzyloxy)pyridin-2-yl)-2-fluorobenzyl)-3-(oxetan-2-ylmethyl)-2H-indazole-S-carboxylic acid] were 15 to 150 nM and more than 1000 nM.
